System: secretion of ApoB by HepG2 cells
Assay: ApoB secretion inhibition assay in HepG2 cells (ApoB ELISA)
Format: cell-based, human
Conditions: Homo sapiens, HepG2, Table 6, assay of Example 2; read-out: IC50 ApoB Assay
Protocol: The ability of the compounds of the present invention to inhibit the secretion of ApoB can be determined using the following cell-based assay, which measures the secretion of ApoB by HepG2 cells. ApoB has two possible metabolic fates: entrance into the lipoprotein assembly pathway within the lumen of the endoplasmic reticulum (ER), or degradation in the cytoplasm by the ubiquitin-dependent proteasome. The destiny of ApoB is determined by the relative availability of individual lipids, which is controlled by MTP (Davis, Biochim. Biophys. Acta, 1999, 1440, 1-31).
HepG2 cells (ATCC, HB-8065) are seeded in 96-well plates in DMEM with 10% FBS+pen/strep at a density of 1×10^5 cells/well (100 μl /well). Twenty-four hours after seeding, the plate is aspirated and the media changed to DMEM with 1% BSA and pen/strep, and the cells are serum-starved for 24 hours. After 24 hour serum-starvation, the plate is aspirated again and the cells are then treated for 24 hours with or without compound in DMEM with 1% BSA, 0.3 mM OA (OA complexed to BSA at a 2:1 ratio) and pen/strep. The final concentration of DMSO in the assay (from compound and control) is 0.1%. After 24 hour treatment, conditioned media is collected in an empty 96-well plate.
Cellular viability is measured using the cell permeable dye, AlamarBlue™. This dye undergoes electron reduction in viable cells but not dead cells. The reduced dye product gives a fluorescent signal which can be monitored with a fluorescence plate reader (excitation 545 nm and emission 575 nm). The amount of fluorescence generated in a given well is proportional to the number of viable cells. After collection, the 96-well plate is re-fed with 100 μl media (DMEM with 10% FBS) and 10 μl Alamar Blue™ per well, incubated for 2 hours and then read in a fluorescence plate reader.
ApoB secretion from HepG2 cells is quantitated by testing the conditioned media at […] using an ApoB ELISA kit (ALerCHEK) according to the manufacturer's instructions. The ELISA assay for ApoB is performed as follows: a polyclonal antibody against human ApoB (Chemicon) is diluted 1:1000 in carbonate-bicarbonate buffer and 100 μl are added to each well of a 96-well plate (NUNC). After 5 hours incubation at room temperature, the antibody solution is removed and wells are washed four times with PBS/0.05% TweenD 20 (Cayman Chemical Co.). Non-specific sites on the plastic plate are blocked by incubating wells for 1 to 1.5 hours in a solution of 0.5% BSA and 0.1% TweenD 20 made in PBS. One hundred microliters of a 1:20 dilution of growth medium from the HepG2 cells (made in 0.004% TweenD 20/1% BSA in PBS) is added to each well and incubated for 3 hours at room temperature. Wells are aspirated and washed four times (0.05% TweenD 20 in PBS) prior to adding 100 μl of a 1:1000 dilution (5 μg/ml) of the secondary antibody, mouse anti-human ApoB (Chemicon). After 2 hours incubation at room temperature, this solution is aspirated and the wells are again washed 4 times as above. One hundred microliters of peroxidase-conjugated affinity purified goat anti-mouse IgG (H+L) (Jackson ImmunoResearch Laboratories) (1:10,000 dilution in PBS/1% BSA/0.1% TweenD 20) is then added to each well and incubated for 1 hour at room temperature. After aspirating, the wells are washed 4 times as above and 50 μl of 1-step Ultra TMB ELISA reagent (Pierce) is added to each well and incubated for 5 minutes. The reaction is stopped by the addition of 50 μl of 2 NH2SO4 and absorbance of each well is read at 450 nm.

SMILES | IC50
CC(C)(C)c1ccc(-c2ccccc2C(=O)Nc2ccc3nc(C(=O)N[C@H](C(=O)NCc4ccccc4)c4ccccc4)sc3c2)cc1 [Compound 6] | 4 nM
CCCCCNC(=O)[C@@H](NC(=O)c1cccc(-c2csc(NC(=O)c3ccccc3-c3ccc(C(C)(C)C)cc3)n2)c1)c1ccccc1 [Compound 11] | 296 nM
CN(Cc1ccc(F)cc1)C(=O)[C@@H](NC(=O)c1cccc(-c2csc(NC(=O)c3ccccc3-c3ccc(C(C)(C)C)cc3)n2)c1)c1ccccc1 [Compound 13] | 238 nM
CCCCCNC(=O)[C@@H](NC(=O)c1ccccc1-c1csc(NC(=O)c2ccccc2-c2ccc(C(C)(C)C)cc2)n1)c1ccccc1 [Compound 15] | > 10000 nM
CC(C)(C)c1ccc(-c2ccccc2C(=O)Nc2nc(-c3ccccc3C(=O)N[C@H](C(=O)N3CCCC3)c3ccccc3)cs2)cc1 [Compound 16, (S)-4′-tert-butyl-N-(4-(2-(2-oxo-1-phenyl-2-(pyrrolidin-1-yl)ethylcarbamoyl)phenyl)thiazol-2-yl)biphenyl-2-carboxamide] | 1100 nM
CN(Cc1ccc(F)cc1)C(=O)[C@@H](NC(=O)c1nc2ccc(N)cc2s1)c1ccccc1 [Compound 19] | > 10000 nM
CC(C)(C)c1ccc(-c2ccccc2C(=O)NCC23CCC(C(=O)N[C@H](C(=O)N4CCCC4)c4ccccc4)(CC2)CC3)cc1 [Compound 20] | 95 nM
CC(C)(C)c1ccc(-c2ccccc2C(=O)NCC23CCC(C(=O)N[C@H](C(=O)N4CCC(F)(F)C4)c4ccccc4)(CC2)CC3)cc1 [Compound 21] | 190 nM
CC(C)(C)c1ccc(-c2ccccc2C(=O)Nc2nc(-c3cccc(C(=O)N[C@H](C(=O)N4CCC(F)(F)C4)c4ccccc4)c3)cs2)cc1 [Compound 26] | 77.2 nM
CC(C)(C)c1ccc(-c2ccccc2C(=O)Nc2nc(-c3cccc(C(=O)N[C@H](C(=O)N4Cc5ccccc5C4)c4ccccc4)c3)cs2)cc1 [Compound 27] | 318 nM
CN(Cc1ccc(F)cc1)C(=O)[C@@H](NC(=O)c1nc2ccc(NC(=O)c3ccccc3-n3cccn3)cc2s1)c1ccccc1 [Compound 31] | 93.1 nM
CC(C)(C)c1ccc(-c2ccccc2C(=O)Nc2ccc3nc(C(=O)N[C@@H](C(=O)N4CCCC4)c4ccccc4)sc3c2)cc1 [Compound 34] | 34.8 nM
CN(Cc1ccc(F)cc1)C(=O)[C@H](NC(=O)c1nc2ccc(NC(=O)c3ccccc3-c3ccc(C(C)(C)C)cc3)cc2s1)c1ccccc1 [Compound 35] | 9.8 nM
CN(Cc1ccc(F)cc1)C(=O)[C@@H](NC(=O)c1nc2ccc(NC(=O)c3ccccc3-c3nc4ccccc4[nH]3)cc2s1)c1ccccc1 [Compound 39] | 256 nM
O=C(N[C@H](C(=O)N1CCCC1)c1ccccc1)c1nc2ccc(NC(=O)c3ccccc3-c3cn4ccsc4n3)cc2s1 [Compound 43] | 105 nM
O=C(N[C@H](C(=O)N1CCCCC1)c1ccccc1)c1nc2ccc(NC(=O)c3ccccc3-c3cn4ccsc4n3)cc2s1 [Compound 44] | 1610 nM
CC(C)(C)c1ccc(-c2ccccc2C(=O)NCC23CCC(C(=O)N[C@H](C(=O)N4CCCCC4)c4ccccc4)(CC2)CC3)cc1 [Compound 45] | 98.2 nM
CC(C)(C)c1ccc(-c2ccccc2C(=O)NCC23CCC(C(=O)N[C@H](C(=O)NC4CCCC4)c4ccccc4)(CC2)CC3)cc1 [Compound 46] | 151 nM
CC(C)(C)c1ccc(-c2ccccc2C(=O)NCC23CCC(C(=O)N[C@H](C(=O)NC4CCCCC4)c4ccccc4)(CC2)CC3)cc1 [Compound 48] | 230 nM
CC(C)(C)NC(=O)[C@@H](NC(=O)C12CCC(CNC(=O)c3ccccc3-c3ccc(C(C)(C)C)cc3)(CC1)CC2)c1ccccc1 [Compound 50] | 165 nM
CN(C(=O)[C@@H](NC(=O)c1nc2ccc(NC(=O)c3ccccc3-c3cn4ccsc4n3)cc2s1)c1ccccc1)C(C)(C)C [Compound 53] | 4180 nM
CN(C(=O)[C@@H](NC(=O)c1nc2ccc(NC(=O)c3ccccc3-c3cn4ccsc4n3)cc2s1)c1ccccc1)C1CCCCC1 [Compound 61] | 2100 nM
O=C(N[C@H](C(=O)NC1CCCCC1)c1ccccc1)c1nc2ccc(NC(=O)c3ccccc3-c3cn4ccsc4n3)cc2s1 [Compound 63] | 82 nM

More lines, now with the values ahead:

IC50 | SMILES
> 10000 nM | CN(Cc1ccc(F)cc1)C(=O)[C@@H](NC(=O)c1ccccc1-c1csc(NC(=O)c2ccccc2-c2ccc(C(C)(C)C)cc2)n1)c1ccccc1 [Compound 17]
2700 nM | CC(C)(C)c1ccc(-c2ccccc2C(=O)Nc2ccc3nc(C(=O)O)sc3c2)cc1 [Compound 18]
253 nM | CC(C)(C)c1ccc(-c2ccccc2C(=O)NCC23CCC(C(=O)N[C@H](C(=O)N4Cc5ccccc5C4)c4ccccc4)(CC2)CC3)cc1 [Compound 22]
21.6 nM | CC(C)(C)c1ccc(-c2ccccc2C(=O)Nc2ccc3nc(C(=O)N[C@H](C(=O)N4Cc5ccccc5C4)c4ccccc4)sc3c2)cc1 [Compound 23]
59.4 nM | Cc1noc(-c2ccccc2C(=O)Nc2ccc3nc(C(=O)N[C@H](C(=O)N(C)Cc4ccc(F)cc4)c4ccccc4)sc3c2)n1 [Compound 25]
158 nM | CN(Cc1ccc(F)cc1)C(=O)[C@@H](NC(=O)c1nc2ccc(NC(=O)c3ccccc3-c3cccnc3)cc2s1)c1ccccc1 [Compound 28]
4200 nM | CN(Cc1ccc(F)cc1)C(=O)[C@@H](NC(=O)c1nc2ccc(NC(=O)c3ccccc3-n3cnnn3)cc2s1)c1ccccc1 [Compound 29]
35.3 nM | CN(Cc1ccc(F)cc1)C(=O)[C@@H](NC(=O)c1ccc(-c2csc(NC(=O)c3ccccc3-c3ccc(C(C)(C)C)cc3)n2)cc1)c1ccccc1 [Compound 37]
78.8 nM | CN(C(=O)[C@@H](NC(=O)C12CCC(CNC(=O)c3ccccc3-c3ccc(C(C)(C)C)cc3)(CC1)CC2)c1ccccc1)C1CCCC1 [Compound 47]
60.3 nM | CC(C)(C)c1ccc(-c2ccccc2C(=O)NCC23CCC(C(=O)N[C@H](C(=O)NCC4CC4)c4ccccc4)(CC2)CC3)cc1 [Compound 49]
872 nM | CN(C(=O)[C@@H](NC(=O)c1nc2ccc(NC(=O)c3ccccc3-c3cn4ccsc4n3)cc2s1)c1ccccc1)C1CCCC1 [Compound 51]
248 nM | CC(C)(C)NC(=O)[C@@H](NC(=O)c1nc2ccc(NC(=O)c3ccccc3-c3cn4ccsc4n3)cc2s1)c1ccccc1 [Compound 52]
846 nM | CN(Cc1ccc(F)cc1)C(=O)[C@@H](NC(=O)c1nc(-c2ccc(NC(=O)c3ccccc3-c3ccc(C(C)(C)C)cc3)cc2)cs1)c1ccccc1 [Compound 56, (S)-4-(4-(4′-tert-butylbiphenyl-2-ylcarboxamido)phenyl)-N-(2-((4-fluorobenzyl)(methyl)amino)-2-oxo-1-phenylethyl)thiazole-2-carboxamide]
272 nM | CC(C)(C)c1ccc(-c2ccccc2C(=O)Nc2ccc(-c3csc(C(=O)N[C@H](C(=O)N4CCCC4)c4ccccc4)n3)cc2)cc1 [Compound 57, (S)-4-(4-(4′-tert-butylbiphenyl-2-ylcarboxamido)phenyl)-N-(2-oxo-1-phenyl-2-(pyrrolidin-1-yl)ethyl)thiazole-2-carboxamide]
300 nM | CN(C(=O)[C@@H](NC(=O)C12CCC(CNC(=O)c3ccccc3-c3ccc(C(C)(C)C)cc3)(CC1)CC2)c1ccccc1)C1CCCCC1 [Compound 58]
286 nM | O=C(N[C@H](C(=O)NCC1CC1)c1ccccc1)c1nc2ccc(NC(=O)c3ccccc3-c3cn4ccsc4n3)cc2s1 [Compound 62]

— patent publication US20080249130A1, “Gut microsomal triglyceride transport protein inhibitors” (Sirtris Pharmaceuticals, Inc., priority 2007, published 2008)
